Experimental data as given in ChEMBL document CHEMBL5058646 (2022).

Columns and labels:
[1] = target: Beta-3 adrenergic receptor (Homo sapiens, UniProt P13945); assay: GPCRScan assay: inhibition of Beta3; set-up: radioligand conc. used [nm] 0.2 – 0.5, parental cells HEK Flp-In
[2] = target: Tyrosine-protein kinase ABL1 (Homo sapiens) (UniProt P00519); assay: ABL1 SGC Tm panel (DSF); conditions: Compound concentration 20.0 uM
[3] = target: Peripheral plasma membrane protein CASK (Homo sapiens) (UniProt O14936); assay: CASK SGC Tm panel (DSF); conditions: Compound concentration 20.0 uM
[4] = target: Serine/threonine-protein kinase haspin (Homo sapiens) (UniProt Q8TF76); assay: GSG2 SGC Tm panel (DSF); conditions: Compound concentration 20.0 uM
[5] = target: Mitogen-activated protein kinase 15 (Homo sapiens) (UniProt Q8TD08); assay: MAPK15 SGC Tm panel (DSF); conditions: Compound concentration 20.0 uM
[6] = target: Mitogen-activated protein kinase 8 (Homo sapiens) (UniProt P45983); assay: MAPK8 SGC Tm panel (DSF); conditions: Compound concentration 20.0 uM
[7] = target: Tyrosine-protein kinase Mer (Homo sapiens) (UniProt Q12866); assay: MERTK SGC Tm panel (DSF); conditions: Compound concentration 20.0 uM
[8] = target: STE20-like serine/threonine-protein kinase (Homo sapiens) (UniProt Q9H2G2); assay: SLK SGC Tm panel (DSF); conditions: Compound concentration 20.0 uM
[9] = target: Serine/threonine-protein kinase 3 (Homo sapiens) (UniProt Q13188); assay: STK3 SGC Tm panel (DSF); conditions: Compound concentration 20.0 uM
[10] = target: Transcription intermediary factor 1-alpha (Homo sapiens) (UniProt O15164); assay: TIF1 SGC Tm panel (DSF); conditions: Compound concentration 20.0 uM
[11] = target: Serine/threonine-protein kinase ULK3 (Homo sapiens) (UniProt Q6PHR2); assay: ULK3 SGC Tm panel (DSF); conditions: Compound concentration 20.0 uM
[12] = target: 5-hydroxytryptamine receptor 1D (Homo sapiens, UniProt P28221); conditions: Compound concentration 10.0 uM
[13] = target: 5-hydroxytryptamine receptor 6 (Homo sapiens) (UniProt P50406); conditions: Compound concentration 10.0 uM
[14] = target: Delta-type opioid receptor (Homo sapiens) (UniProt P41143); conditions: Compound concentration 10.0 uM
[15] = target: Histamine H1 receptor (Homo sapiens) (UniProt P35367); conditions: Compound concentration 10.0 uM
[16] = target: Alpha-2B adrenergic receptor (Homo sapiens) (UniProt P18089); conditions: Compound concentration 10.0 uM
[17] = target: Muscarinic acetylcholine receptor M1 (Homo sapiens) (UniProt P11229); conditions: Compound concentration 10.0 uM
[18] = target: Muscarinic acetylcholine receptor M4 (Homo sapiens) (UniProt P08173); conditions: Compound concentration 10.0 uM
[19] = target: Sigma intracellular receptor 2 (Homo sapiens, UniProt Q5BJF2); conditions: Compound concentration 10.0 uM
[20] = target: T1, Zinc finger and BTB domain-containing protein 44 (Homo sapiens) (UniProt Q8NCP5); conditions: SUD4, Compound concentration 1.0 uM
T1 sequence (whole entry): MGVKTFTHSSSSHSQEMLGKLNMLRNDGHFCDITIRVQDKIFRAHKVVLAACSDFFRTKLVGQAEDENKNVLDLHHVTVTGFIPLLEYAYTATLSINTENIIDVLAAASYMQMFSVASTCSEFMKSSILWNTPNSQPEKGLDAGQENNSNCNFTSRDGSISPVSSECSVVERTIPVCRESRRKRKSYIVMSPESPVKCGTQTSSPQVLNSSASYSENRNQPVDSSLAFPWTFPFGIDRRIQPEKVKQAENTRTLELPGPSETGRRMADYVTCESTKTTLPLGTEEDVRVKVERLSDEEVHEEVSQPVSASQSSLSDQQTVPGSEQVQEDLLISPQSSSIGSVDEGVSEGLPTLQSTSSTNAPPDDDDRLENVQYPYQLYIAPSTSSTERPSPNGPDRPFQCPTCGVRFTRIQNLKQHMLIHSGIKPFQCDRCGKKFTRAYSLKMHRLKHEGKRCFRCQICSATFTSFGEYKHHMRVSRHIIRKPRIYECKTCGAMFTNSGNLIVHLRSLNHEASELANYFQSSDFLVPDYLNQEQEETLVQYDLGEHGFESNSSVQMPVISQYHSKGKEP

[21] = target: T2, Zinc finger and BTB domain-containing protein 24 (Homo sapiens) (UniProt O43167); conditions: SUD4, Compound concentration 1.0 uM
T2 sequence (whole entry): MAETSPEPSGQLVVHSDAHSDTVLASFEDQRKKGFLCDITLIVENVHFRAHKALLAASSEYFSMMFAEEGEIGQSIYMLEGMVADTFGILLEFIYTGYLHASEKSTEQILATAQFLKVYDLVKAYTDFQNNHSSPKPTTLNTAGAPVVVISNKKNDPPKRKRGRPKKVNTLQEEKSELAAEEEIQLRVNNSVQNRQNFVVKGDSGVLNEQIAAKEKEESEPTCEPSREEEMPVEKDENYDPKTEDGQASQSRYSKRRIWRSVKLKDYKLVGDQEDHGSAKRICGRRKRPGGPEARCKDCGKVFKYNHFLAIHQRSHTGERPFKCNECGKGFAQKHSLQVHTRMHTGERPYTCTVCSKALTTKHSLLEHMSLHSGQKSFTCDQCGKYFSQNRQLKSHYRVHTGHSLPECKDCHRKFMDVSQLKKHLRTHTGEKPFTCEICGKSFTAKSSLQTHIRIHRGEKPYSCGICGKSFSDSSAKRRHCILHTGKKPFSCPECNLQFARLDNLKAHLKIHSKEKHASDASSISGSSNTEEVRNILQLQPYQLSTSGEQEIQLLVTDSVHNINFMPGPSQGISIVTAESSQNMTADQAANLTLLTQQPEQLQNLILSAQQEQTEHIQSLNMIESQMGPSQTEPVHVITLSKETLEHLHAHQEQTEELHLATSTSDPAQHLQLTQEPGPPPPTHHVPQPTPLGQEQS

[22] = target: Phosphorylase b kinase gamma catalytic chain, liver/testis isoform (Homo sapiens) (UniProt P15735); assay: PHKG2 SGC Tm panel (DSF); conditions: Compound concentration 20.0 uM
[23] = target: Serine/threonine-protein kinase MRCK alpha (Homo sapiens) (UniProt Q5VT25); assay: CDC42BPA SGC Tm panel (DSF); conditions: Compound concentration 20.0 uM
Serine/threonine-protein kinase MRCK alpha (Homo sapiens), sequence (Q5VT25 whole entry, looked up): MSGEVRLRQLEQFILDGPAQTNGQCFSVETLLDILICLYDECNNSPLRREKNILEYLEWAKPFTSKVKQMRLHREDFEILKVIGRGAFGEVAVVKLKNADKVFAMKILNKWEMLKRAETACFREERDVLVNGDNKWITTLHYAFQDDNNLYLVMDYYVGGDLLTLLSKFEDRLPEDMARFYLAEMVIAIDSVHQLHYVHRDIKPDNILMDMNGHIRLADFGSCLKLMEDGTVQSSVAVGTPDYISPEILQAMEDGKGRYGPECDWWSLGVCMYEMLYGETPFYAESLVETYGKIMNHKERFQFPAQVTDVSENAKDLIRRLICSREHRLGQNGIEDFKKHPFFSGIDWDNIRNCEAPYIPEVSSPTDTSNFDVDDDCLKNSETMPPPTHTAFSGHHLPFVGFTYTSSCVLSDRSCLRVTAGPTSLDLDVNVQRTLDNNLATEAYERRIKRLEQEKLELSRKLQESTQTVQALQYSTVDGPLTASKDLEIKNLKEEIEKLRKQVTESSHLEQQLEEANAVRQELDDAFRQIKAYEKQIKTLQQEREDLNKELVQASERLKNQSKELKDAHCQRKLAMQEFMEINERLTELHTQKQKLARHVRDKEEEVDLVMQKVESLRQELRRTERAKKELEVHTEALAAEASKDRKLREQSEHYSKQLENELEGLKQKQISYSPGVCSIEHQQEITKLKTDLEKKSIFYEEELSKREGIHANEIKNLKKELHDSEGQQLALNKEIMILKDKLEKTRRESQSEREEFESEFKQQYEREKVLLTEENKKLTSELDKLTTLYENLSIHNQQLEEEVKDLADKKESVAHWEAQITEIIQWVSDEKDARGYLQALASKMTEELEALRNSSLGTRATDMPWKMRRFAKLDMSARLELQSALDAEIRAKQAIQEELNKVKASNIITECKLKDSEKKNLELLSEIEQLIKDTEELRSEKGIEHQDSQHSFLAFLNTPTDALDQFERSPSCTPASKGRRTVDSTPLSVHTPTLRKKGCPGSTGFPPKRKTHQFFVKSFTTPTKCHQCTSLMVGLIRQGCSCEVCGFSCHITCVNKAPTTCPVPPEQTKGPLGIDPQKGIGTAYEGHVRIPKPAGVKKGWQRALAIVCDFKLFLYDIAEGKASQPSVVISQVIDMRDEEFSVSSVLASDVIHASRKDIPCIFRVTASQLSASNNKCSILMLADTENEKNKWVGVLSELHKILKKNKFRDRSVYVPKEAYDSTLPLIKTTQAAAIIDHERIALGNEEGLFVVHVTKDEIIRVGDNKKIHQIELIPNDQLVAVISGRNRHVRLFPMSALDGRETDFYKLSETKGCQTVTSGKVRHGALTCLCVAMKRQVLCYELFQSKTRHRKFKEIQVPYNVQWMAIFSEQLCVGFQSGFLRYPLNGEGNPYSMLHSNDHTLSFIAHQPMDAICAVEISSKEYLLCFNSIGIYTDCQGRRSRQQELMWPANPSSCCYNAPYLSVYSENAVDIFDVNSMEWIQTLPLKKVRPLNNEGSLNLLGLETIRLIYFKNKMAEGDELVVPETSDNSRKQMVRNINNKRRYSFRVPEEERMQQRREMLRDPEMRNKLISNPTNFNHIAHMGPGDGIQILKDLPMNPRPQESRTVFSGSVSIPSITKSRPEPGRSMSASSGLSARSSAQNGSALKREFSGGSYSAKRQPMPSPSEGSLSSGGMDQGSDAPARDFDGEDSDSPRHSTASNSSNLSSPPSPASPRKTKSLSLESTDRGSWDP

Beta-3 adrenergic receptor, sequence (P13945 whole entry): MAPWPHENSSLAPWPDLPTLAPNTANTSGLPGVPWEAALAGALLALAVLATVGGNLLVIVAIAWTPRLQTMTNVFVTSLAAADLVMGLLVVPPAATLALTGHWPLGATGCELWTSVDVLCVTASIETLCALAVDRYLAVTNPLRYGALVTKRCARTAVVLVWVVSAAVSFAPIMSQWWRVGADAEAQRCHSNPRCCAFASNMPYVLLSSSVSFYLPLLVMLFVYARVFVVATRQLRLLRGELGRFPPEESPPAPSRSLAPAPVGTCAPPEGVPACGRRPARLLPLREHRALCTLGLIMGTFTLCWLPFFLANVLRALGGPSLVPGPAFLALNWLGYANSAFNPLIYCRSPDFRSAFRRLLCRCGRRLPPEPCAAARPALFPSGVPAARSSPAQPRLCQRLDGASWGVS
Peripheral plasma membrane protein CASK (Homo sapiens), sequence (O14936 whole entry): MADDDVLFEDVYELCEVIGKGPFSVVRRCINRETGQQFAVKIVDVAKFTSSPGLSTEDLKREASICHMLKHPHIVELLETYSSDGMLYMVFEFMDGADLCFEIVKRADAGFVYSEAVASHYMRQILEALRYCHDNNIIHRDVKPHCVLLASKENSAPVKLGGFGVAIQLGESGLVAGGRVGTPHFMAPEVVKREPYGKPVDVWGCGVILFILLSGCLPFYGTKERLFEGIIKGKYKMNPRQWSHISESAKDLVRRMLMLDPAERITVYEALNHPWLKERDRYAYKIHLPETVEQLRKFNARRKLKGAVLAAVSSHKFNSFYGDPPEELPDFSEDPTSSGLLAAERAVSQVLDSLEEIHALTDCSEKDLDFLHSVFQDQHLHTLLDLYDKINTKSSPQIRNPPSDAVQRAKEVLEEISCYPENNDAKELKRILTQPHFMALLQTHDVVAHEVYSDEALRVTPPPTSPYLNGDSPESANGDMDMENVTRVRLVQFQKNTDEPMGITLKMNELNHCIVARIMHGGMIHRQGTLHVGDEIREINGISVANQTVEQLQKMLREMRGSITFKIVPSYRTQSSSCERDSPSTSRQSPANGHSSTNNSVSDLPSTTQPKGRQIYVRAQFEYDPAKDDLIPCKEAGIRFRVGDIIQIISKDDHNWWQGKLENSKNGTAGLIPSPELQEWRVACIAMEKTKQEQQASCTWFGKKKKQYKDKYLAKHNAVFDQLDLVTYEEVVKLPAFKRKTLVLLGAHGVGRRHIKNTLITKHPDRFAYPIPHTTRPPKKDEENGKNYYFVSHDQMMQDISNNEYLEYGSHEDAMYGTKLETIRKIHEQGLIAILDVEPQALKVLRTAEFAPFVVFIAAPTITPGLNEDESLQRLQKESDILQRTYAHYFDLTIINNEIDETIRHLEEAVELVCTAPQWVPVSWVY
5-hydroxytryptamine receptor 6 (Homo sapiens), sequence (P50406 whole entry): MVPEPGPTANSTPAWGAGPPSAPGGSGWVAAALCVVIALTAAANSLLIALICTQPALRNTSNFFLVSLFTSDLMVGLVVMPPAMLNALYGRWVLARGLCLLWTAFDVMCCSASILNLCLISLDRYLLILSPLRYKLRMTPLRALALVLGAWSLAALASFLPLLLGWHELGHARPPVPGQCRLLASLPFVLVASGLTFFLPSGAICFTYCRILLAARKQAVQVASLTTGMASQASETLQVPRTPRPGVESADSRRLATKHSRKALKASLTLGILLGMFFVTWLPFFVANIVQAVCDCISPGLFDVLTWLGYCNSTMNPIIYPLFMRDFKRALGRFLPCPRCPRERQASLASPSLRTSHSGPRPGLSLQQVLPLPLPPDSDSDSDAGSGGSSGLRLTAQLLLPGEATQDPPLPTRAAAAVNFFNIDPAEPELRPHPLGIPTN
Tyrosine-protein kinase ABL1 (Homo sapiens), sequence (P00519 whole entry): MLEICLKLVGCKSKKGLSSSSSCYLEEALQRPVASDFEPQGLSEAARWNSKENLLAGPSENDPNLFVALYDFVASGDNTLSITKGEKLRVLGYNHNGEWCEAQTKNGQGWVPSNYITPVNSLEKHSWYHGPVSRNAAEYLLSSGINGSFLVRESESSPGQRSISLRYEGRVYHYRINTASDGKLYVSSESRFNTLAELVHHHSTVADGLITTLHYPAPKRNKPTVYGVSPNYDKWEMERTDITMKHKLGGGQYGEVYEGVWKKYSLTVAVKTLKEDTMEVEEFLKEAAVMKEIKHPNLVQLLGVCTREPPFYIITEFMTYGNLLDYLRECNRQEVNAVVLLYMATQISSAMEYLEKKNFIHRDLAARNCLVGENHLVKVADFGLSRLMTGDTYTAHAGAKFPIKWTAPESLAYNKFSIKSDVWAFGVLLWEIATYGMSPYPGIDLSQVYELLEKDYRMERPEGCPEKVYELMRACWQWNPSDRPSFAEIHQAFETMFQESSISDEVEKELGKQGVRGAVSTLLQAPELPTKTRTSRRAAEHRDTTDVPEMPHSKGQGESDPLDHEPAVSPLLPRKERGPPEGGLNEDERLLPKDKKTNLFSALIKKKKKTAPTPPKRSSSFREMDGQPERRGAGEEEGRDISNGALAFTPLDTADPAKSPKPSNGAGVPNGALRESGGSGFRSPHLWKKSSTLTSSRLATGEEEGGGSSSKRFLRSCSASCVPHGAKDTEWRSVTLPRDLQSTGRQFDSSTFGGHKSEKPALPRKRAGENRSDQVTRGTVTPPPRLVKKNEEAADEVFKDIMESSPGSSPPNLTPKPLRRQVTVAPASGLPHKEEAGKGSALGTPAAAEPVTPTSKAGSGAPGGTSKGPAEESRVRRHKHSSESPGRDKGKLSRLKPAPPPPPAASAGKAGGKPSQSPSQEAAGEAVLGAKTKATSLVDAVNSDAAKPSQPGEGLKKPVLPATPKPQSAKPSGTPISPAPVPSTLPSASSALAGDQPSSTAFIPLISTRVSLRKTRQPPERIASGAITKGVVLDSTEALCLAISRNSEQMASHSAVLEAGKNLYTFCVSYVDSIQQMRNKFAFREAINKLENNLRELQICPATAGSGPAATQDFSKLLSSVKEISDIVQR
Mitogen-activated protein kinase 8 (Homo sapiens), sequence (P45983 whole entry): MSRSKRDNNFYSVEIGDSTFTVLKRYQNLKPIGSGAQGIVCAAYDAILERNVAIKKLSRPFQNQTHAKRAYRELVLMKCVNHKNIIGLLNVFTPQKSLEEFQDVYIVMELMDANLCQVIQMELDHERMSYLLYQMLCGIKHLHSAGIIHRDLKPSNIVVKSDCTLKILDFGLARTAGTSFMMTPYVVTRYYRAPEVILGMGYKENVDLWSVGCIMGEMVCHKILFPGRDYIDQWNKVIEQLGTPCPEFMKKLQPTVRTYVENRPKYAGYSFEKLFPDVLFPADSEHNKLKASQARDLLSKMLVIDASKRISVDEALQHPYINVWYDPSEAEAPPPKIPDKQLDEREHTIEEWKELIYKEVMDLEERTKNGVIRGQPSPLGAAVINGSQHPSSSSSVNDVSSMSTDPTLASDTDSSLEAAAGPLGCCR

Ki ([1]; read-out: Ki): 3.99 µM
Ki ([1]; read-out: pKi (converted)): 3.89 µM
Tm [2]: 46 °C
Tm [3]: 68 °C
Tm [4]: 45 °C
Tm [6]: 43 °C
Tm [7]: 47 °C
Tm [8]: 42 °C
Tm [9]: 47 °C
Tm [10]: 36 °C
Tm [11]: 44 °C
inhibition [12]: 56.5%
inhibition [13]: 3.94%
inhibition [14]: 18.1%
inhibition [15]: 10.3%
inhibition [16]: 7.28%
inhibition [17]: 3.3%
inhibition [18]: -2.86%
inhibition [19]: 85.7%
LogFC [20]: -0.00843
LogFC [21]: 0.00149
Tm [22]: 46 °C
Tm [23]: 43 °C
SMILES: C[C@@H]1CN(c2ncc(Cl)c(Nc3ccc4c(c3)n(CCC(C)(C)O)c(=O)n4C)n2)C[C@H](C)C1(F)F
Tm [5]: 50 °C
